Assay type in all cases: functional
The species named for experiment [1] is Rattus norvegicus. The experiment can be described thus: Effect of compound on basal [Ca2+] and ODN induced [Ca2+] increase in cultured rat astrocytes measured at 10*e-6 conc (M).
The species entered for experiment [2] is Rattus norvegicus. The experiment can be described thus: Effect of compound on basal [Ca2+] and ODN induced [Ca2+] increase in cultured rat astrocytes measured at 10*e-8+10e-6 conc (M) in the presence of [D-Leu15]-ODN.
For experiment [3], the species on record is Rattus norvegicus. The experiment can be described thus: Effect of compound on basal [Ca2+] and ODN induced [Ca2+] increase in cultured rat astrocytes measured at 10*e-8+10e-6 conc (M) in the presence of [D-Thr9]-ODN.
Experiment [4] is filed under the species Rattus norvegicus. Nature of the experiment: Effect of compound on basal [Ca2+] and ODN induced [Ca2+] increase in cultured rat astrocytes measured at 10*e-8 conc (M).
The species entered for experiment [5] is Rattus norvegicus. Nature of the experiment: Effect of compound on basal [Ca2+] and ODN induced [Ca2+] increase in cultured rat astrocytes measured at 10*e-8+10e-6 conc (M) in the presence of [Ala9]ODN. p<0.001.
The species named for experiment [6] is Rattus norvegicus. Nature of the experiment: Effect of compound on basal [Ca2+] and ODN induced [Ca2+] increase in cultured rat astrocytes measured at 10*e-8+10e-6 conc (M) in the presence of [D-Leu5-]OP.
The species entered for experiment [7] is Rattus norvegicus. The experiment can be described thus: Effect of compound on basal [Ca2+] and ODN induced [Ca2+] increase in cultured rat astrocytes measured at 10*e-8+10e-6 conc (M) in the presence of [Ala15]ODN. p<0.001.

Peptide text beside a SMILES is read from it.

In the case of `CC(C)C[C@H](NC(=O)CNC(=O)[C@@H]1CCCN1C(=O)[C@@H](N)CCCNC(=N)N)C(=O)N[C@@H](C)C(=O)N[C@@H](CC(=O)O)C(=O)N[C@@H](CC(C)C)C(=O)N[C@@H](CCCCN)C(=O)O` (H-RPGLADLK-OH), the “[Ca2+] variation” value in the experiment listed under Rattus norvegicus [1] is 37 nM.

As for `CC(C)C[C@H](NC(=O)CNC(=O)[C@@H]1CCCN1C(=O)[C@H](CCCN=C(N)N)NC(=O)[C@H](CC(=O)O)NC(=O)[C@@H](NC(=O)[C@H](CC(N)=O)NC(=O)[C@@H](NC(=O)[C@H](CC(=O)O)NC(=O)CNC(=O)[C@@H](NC(=O)[C@@H](NC(=O)[C@H](C)NC(=O)[C@@H](N)CCC(N)=O)[C@@H](C)O)C(C)C)C(C)C)[C@@H](C)O)C(=O)N[C@@H](CC(C)C)C(=O)N[C@@H](CC(=O)O)C(=O)N[C@@H](CC(C)C)C(=O)N[C@@H](CCCCN)C(=O)O` [QATVGDVNTDRPGLLDLK] (H-QATVGDVNTDRPGLLDLK-OH), the “[Ca2+] variation” value in the experiment listed under Rattus norvegicus [2] was found to be 25 nM; in the experiment filed under Rattus norvegicus [3], 31 nM; in the experiment listed under Rattus norvegicus [4], 62 nM; in the experiment listed under Rattus norvegicus [5], 39 nM; in the experiment listed under Rattus norvegicus [6] it was 39 nM; in the experiment filed under Rattus norvegicus [7] it was 36 nM.

The values above are taken from ChEMBL document CHEMBL1131167, “Structure-activity relationships of a series of analogues of the octadecaneuropeptide ODN on calcium mobilization in rat astrocytes” (1998).
